Read-outs that look alike come from different tables or passages of the source. Each block holds one compound with its values, some of them ahead of it.
Key:
[1] = system: MDA-MB-231 human breast adenocarcinoma cells; assay: Sulforhodamine B (SRB) cell proliferation assay, MDA-MB-231; format: cell-based
Protocol: (§1) The cytotoxic effect (IC50 values, Table 4) was determined from dose–response curves.
(§2) Royleanones and doxorubicin (Doxo) were tested on human breast adenocarcinoma lines. […] HFF‐1 cells were cultured in DMEM/F‐12 supplemented with 10% FBS. All cells were maintained at 37 °C in a humidified atmosphere of 5% CO2. Cells were routinely tested for mycoplasma infection using the MycoAlert™ PLUS mycoplasma detection kit (Lonza).
(§3) For the evaluation of the effect of the compounds on cell proliferation, the SRB assay was performed. […] Cells were treated for 48 h with serial dilutions of the compounds (ranging from 0.1 to 30.0 µM). The effects on cell proliferation were assessed by SRB assay, as described, and IC50 values were determined for each cell line using the GraphPad Prism software version 7.0 (La Jolla, CA, USA).

[2] = system: MCF-7 human breast adenocarcinoma cells; assay: Sulforhodamine B (SRB) cell proliferation assay, MCF-7; format: cell-based
Protocol: as §1, §2, §3

[3] = system: MDA-MB-468 human breast adenocarcinoma cells; assay: Sulforhodamine B (SRB) cell proliferation assay, MDA-MB-468; format: cell-based
Protocol: as §1, §2, §3

[4] = system: non-tumorigenic foreskin fibroblasts HFF-1 cells; assay: Sulforhodamine B (SRB) cell proliferation assay, HFF-1; format: cell-based, human
Protocol: as §1, §2, §3

[5] = system: MCF-7 human breast adenocarcinoma cells; conditions: cited from earlier work
PKC-ε = molecular target: T1, PKC-ε (Homo sapiens, UniProt Q02156); assay: Yeast PKC assay, PKC-ε; format: cell-based
T1 construct: expressed in transfected cells; host or cells: Saccharomyces cerevisiae
T1 sequence (Q02156 1-737): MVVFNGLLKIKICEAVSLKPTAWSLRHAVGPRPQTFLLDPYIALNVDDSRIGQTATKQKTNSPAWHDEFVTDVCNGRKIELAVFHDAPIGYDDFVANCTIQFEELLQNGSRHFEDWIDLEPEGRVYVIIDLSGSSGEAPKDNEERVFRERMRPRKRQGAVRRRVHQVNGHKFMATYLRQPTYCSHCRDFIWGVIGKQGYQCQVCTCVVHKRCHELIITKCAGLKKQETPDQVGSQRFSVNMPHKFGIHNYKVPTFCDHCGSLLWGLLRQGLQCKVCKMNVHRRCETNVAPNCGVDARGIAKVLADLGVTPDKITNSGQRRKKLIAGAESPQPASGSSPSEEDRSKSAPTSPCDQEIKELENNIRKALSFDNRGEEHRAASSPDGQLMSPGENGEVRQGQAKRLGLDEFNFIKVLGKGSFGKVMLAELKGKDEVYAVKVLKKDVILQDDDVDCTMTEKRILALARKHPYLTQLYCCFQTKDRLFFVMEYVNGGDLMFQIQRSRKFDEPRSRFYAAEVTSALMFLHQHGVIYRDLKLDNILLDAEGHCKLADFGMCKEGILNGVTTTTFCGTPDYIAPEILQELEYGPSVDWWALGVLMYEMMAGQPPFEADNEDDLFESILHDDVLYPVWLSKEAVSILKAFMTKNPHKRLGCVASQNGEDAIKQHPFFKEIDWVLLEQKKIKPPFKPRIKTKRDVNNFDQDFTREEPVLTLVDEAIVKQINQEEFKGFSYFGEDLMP
Excerpt: (§4) PKC isoforms are key targets for cancer therapy due to their significant roles in cancer development and progression. The selective-PKC-δ activation observed for RoyBz is well established. Nonetheless, it is important to understand the effect of Roy on PKC isoforms. Due to the specificity of the assay, it was decided to evaluate only few compounds: the natural ones Roy and DeRoy and two derivatives, one aromatic ester RoyBz and one aliphatic ester RoyPr[27] as PKC-α, -βI, -δ, -ε, and -ζ activators using the yeast PKC assay.
(§5) For the determination of EC50 values were considered the concentration of compound that caused 50% of the maximal growth inhibition caused by the positive controls (phorbol 12-myristate 13-acetate, PMA, for cPKCs and nPKCs; arachidonic acid, ARA, for PKCζ), which was set as 100%. Data are mean ± SEM of four independent experiments. nt, not tested; ND, non-determinable (when the maximal response achieved was lower than 50% growth inhibition).
(§6) The royleanones Roy, RoyBz and RoyPr were tested on the yeast assay as reported in[3]. Briefly, Saccharomyces cerevisiae cells individually expressing mammalian PKC-α, -βI, -δ, -ε, or -ζ, and control yeast (transformed with empty vector) obtained in previous works were used. Cells were grown in galactose selective medium in the presence of 0.1—30 μM of compounds (or 0.1% DMSO only) for approximately 42 h. Yeast growth was analyzed by counting the number of colony-forming units, after 2 days incubation at 30 °C. The growth of yeast transformed with the empty vector (control) was considered as 100%. From the dose–response curves obtained, EC50 (half maximal effective concentration) values were determined for the tested compounds.

PKC-δ [6] = molecular target: T2, PKC-δ (Rattus norvegicus, UniProt P09215); assay: Yeast PKC assay, PKC-δ; format: cell-based
T2 construct: expressed in transfected cells; host or cells: Saccharomyces cerevisiae
Excerpt: as §4, §5, §6

PKC-βI = molecular target: T3, PKC-βI (Rattus norvegicus, UniProt P68403); assay: Yeast PKC assay, PKC-βI; format: cell-based, yeast (Saccharomyces cerevisiae)
T3 construct: expressed in transfected cells; host or cells: Saccharomyces cerevisiae
Excerpt: as §4, §5, §6

PKC-α = molecular target: T4, PKC-α (Bos taurus, UniProt P04409); assay: Yeast PKC assay, PKC-α; format: cell-based, yeast (Saccharomyces cerevisiae)
T4 construct: expressed in transfected cells; host or cells: Saccharomyces cerevisiae
Excerpt: as §4, §5, §6

PKC-δ [7] = molecular target: T2, PKC-δ; design: method as in PMID 29348560; conditions: yeast PKC assay; cited from earlier work
PKC-ζ = molecular target: T5, PKC-ζ (Mus musculus, UniProt Q02956); assay: Yeast PKC assay, PKC-ζ; format: cell-based
T5 construct: expressed in transfected cells; host or cells: Saccharomyces cerevisiae
T5 sequence (Q02956 1-592): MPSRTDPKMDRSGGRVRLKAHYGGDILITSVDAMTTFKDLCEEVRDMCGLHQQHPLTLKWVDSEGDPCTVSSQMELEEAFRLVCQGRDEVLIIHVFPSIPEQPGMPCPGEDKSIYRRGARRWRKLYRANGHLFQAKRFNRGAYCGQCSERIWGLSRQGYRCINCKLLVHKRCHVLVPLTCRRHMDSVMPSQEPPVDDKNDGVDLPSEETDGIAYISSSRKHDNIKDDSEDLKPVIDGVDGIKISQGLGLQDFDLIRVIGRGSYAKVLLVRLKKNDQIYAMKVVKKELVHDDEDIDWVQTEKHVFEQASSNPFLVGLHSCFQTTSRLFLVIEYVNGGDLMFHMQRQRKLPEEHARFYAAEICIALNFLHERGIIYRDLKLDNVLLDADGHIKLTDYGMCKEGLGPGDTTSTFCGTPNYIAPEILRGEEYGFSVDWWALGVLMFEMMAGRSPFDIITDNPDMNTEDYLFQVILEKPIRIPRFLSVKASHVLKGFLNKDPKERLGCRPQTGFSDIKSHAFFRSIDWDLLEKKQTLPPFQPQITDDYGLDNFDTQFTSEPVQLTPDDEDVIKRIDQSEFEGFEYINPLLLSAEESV
Excerpt: as §4, §5, §6

[8] = Homo sapiens, MDA-MB-231, 48 h, 48 h treatment
[9] = Homo sapiens, MCF7, 48 h treatment
[10] = Homo sapiens, MDA-MB-468, 48 h, 48 h treatment
[11] = yeast growth inhibition, 50% of maximal effect of PMA, mean ± SEM, four experiments, ND = maximal response lower than 50% growth inhibition, read-out: EC50 (nM) PKC-ε
[12] = yeast growth inhibition, 50% of maximal effect of PMA, mean ± SEM, four experiments, ND = maximal response lower than 50% growth inhibition, read-out: EC50 (nM) PKC-δ
[13] = yeast growth inhibition, 50% of maximal effect of PMA, mean ± SEM, four experiments, ND = maximal response lower than 50% growth inhibition, read-out: EC50 (nM) PKC-βI
[14] = yeast growth inhibition, 50% of maximal effect of PMA, mean ± SEM, four experiments, ND = maximal response lower than 50% growth inhibition, read-out: EC50 (nM) PKC-α
[15] = Homo sapiens, MDA-MB-231, 48 h treatment
[16] = Homo sapiens, HFF-1, 48 h treatment
[17] = Homo sapiens, MDA-MB-468, 48 h treatment
[18] = yeast growth inhibition, 50% of maximal effect of ARA, mean ± SEM, four experiments, ND = maximal response lower than 50% growth inhibition, read-out: EC50 (nM) PKC-ζ

T3 sequence (P68403 whole entry): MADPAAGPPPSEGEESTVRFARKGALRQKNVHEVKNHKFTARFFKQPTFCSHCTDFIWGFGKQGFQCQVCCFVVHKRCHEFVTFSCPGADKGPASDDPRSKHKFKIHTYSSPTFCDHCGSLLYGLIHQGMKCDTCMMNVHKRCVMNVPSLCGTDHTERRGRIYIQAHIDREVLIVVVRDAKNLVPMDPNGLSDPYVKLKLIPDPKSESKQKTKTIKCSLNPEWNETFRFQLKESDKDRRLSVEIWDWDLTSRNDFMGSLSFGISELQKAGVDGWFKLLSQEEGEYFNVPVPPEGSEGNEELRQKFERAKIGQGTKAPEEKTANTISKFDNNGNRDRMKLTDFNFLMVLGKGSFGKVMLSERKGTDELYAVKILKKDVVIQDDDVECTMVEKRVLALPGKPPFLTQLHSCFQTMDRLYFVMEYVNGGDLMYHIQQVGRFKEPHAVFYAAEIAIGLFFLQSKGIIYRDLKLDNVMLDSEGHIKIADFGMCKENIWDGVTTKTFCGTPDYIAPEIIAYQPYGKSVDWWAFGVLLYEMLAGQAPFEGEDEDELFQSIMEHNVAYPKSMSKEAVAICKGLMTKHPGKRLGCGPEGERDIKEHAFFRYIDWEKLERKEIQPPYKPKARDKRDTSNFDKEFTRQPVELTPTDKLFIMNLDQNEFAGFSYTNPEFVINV
T2 sequence (P09215 whole entry): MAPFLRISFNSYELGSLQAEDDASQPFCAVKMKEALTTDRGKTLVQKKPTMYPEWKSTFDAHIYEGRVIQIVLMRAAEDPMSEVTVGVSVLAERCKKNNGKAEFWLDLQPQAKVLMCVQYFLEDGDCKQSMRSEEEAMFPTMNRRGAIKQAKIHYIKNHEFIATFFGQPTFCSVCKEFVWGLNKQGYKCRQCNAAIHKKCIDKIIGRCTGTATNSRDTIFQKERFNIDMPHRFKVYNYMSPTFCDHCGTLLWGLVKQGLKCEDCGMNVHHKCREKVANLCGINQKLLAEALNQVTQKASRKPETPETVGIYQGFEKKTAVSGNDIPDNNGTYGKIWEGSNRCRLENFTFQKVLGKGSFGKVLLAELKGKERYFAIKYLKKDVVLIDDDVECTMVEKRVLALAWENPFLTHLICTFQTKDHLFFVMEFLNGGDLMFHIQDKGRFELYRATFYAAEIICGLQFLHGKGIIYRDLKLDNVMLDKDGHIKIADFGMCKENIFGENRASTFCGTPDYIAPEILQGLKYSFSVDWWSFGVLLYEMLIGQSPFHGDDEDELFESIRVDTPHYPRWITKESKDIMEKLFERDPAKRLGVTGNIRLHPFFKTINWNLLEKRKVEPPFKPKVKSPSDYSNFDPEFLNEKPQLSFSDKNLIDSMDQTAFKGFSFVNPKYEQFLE

IC50 [1, 8]: > 20000 nM
IC50 [2, 9]: > 20000 nM
IC50 [3, 10]: > 20000 nM
SMILES: CC(C)C1=C(O)C(=O)C2=C(C1=O)[C@H](O)[C@@H](O)[C@H]1C(C)(C)CCC[C@]21C [DiRoy, 6β,7α-dihydroxyroyleanone]

SMILES: CC(=O)OC1=C(C(C)C)C(=O)C2=C(C1=O)C1(C)CCCC(C)(C)C1C(O)C2OC(C)=O (stereo not drawn) [Roy-12-Ac, 7α-acetoxy-6β-hydroxy-12-O-acetylroyleanone]
IC50 ([1]; 48 h treatment): 2430 ± 150 nM
IC50 ([2]; 48 h treatment): 5670 ± 240 nM
IC50 ([4]; 48 h treatment): 600 ± 40 nM
IC50 ([3]; 48 h treatment): 1600 ± 160 nM

SMILES: CCC(=O)OC1=C(C(C)C)C(=O)C2=C(C1=O)C1(C)CCCC(C)(C)C1C(OC(=O)CC)C2OC(C)=O (stereo not drawn) [RoyPr, 7α-acetoxy-6β-propanoyloxy-12-O-propanoylroyleanone]
IC50 [5]: 28300 ± 2400 nM
EC50 (PKC-ε; [11]): 770 ± 46 nM
EC50 (PKC-δ [6]; [12]): 325 ± 49 nM
EC50 (PKC-βI; [13]): 229 ± 21 nM
EC50 (PKC-α; [14]): 195 ± 16 nM

SMILES: CC(=O)O[C@H]1C2=C(C(=O)C(OC(=O)c3ccccc3)=C(C(C)C)C2=O)[C@@]2(C)CCCC(C)(C)[C@@H]2[C@@H]1OC(=O)c1ccccc1 [RoyBz, 7α-acetoxy-6β-benzoyloxy-12-O-benzoylroyleanone]
IC50 [1, 15]: 1500 ± 850 nM
IC50 [2, 9]: 1660 ± 100 nM
IC50 [4, 16]: 3580 ± 270 nM
IC50 [3, 17]: 1400 ± 80 nM
EC50 (PKC-δ [7]): 108 nM

SMILES: CC(=O)OC1=C(C(C)C)C(=O)C2=C(C1=O)C1(C)CCCC(C)(C)C1C(OC(C)=O)C2OC(C)=O (stereo not drawn) [RoyAc, 7α,6β-diacetoxy-12-O-acetylroyleanone]
IC50 ([1]; 48 h treatment): 1860 ± 90 nM
IC50 ([2]; 48 h treatment): 4250 ± 570 nM
IC50 ([4]; 48 h treatment): 4970 ± 340 nM
IC50 ([3]; 48 h treatment): 3250 ± 200 nM

SMILES: CC(=O)O[C@H]1C2=C(C(=O)C(OC(=O)c3ccccc3)=C(C(C)C)C2=O)[C@@]2(C)CCCC(C)(C)[C@@H]2[C@@H]1O [Roy-12-Bz, 7α-acetoxy-6β-hydroxy-12-O-benzoylroyleanone]
IC50 [1, 8]: 1650 ± 150 nM
IC50 [2, 9]: 4320 ± 240 nM
IC50 [4, 16]: 1160 ± 220 nM
IC50 [3, 10]: 1280 nM

SMILES: CCCCCCCCCCCCCC(=O)O[C@@H]1[C@@H](C)[C@@]2(O)[C@@H](C=C(CO)C[C@]3(O)C(=O)C(C)=C[C@@H]23)[C@@H]2C(C)(C)[C@]12OC(C)=O [PMA, phorbol 12-myristate 13-acetate, reference compound]
EC50 (PKC-ε): 1680 ± 46.5 nM
EC50 (PKC-δ [6]): 574 ± 36.7 nM
EC50 (PKC-βI): 243 ± 69.1 nM
EC50 (PKC-α): 112 ± 18.4 nM

IC50 [1, 15]: 1200 ± 50 nM
IC50 [2, 9]: 600 ± 10 nM
IC50 [3, 17]: 300 ± 40 nM
SMILES: COc1cccc2c1C(=O)c1c(O)c3c(c(O)c1C2=O)C[C@@](O)(C(=O)CO)C[C@@H]3O[C@H]1C[C@H](N)[C@H](O)[C@H](C)O1 [Doxo, Doxorubicin, reference compound]
IC50 [4, 16]: 100 ± 120 nM

SMILES: CC(=O)OC1C2=C(C(=O)C(O)=C(C(C)C)C2=O)C2(C)CCCC(C)(C)C2C1O (stereo not drawn) [Roy, 7α-acetoxy-6β-hydroxyroyleanone]
IC50 ([1]; 48 h treatment): 350 ± 120 nM
IC50 [1, 8]: 300 nM
IC50 [2, 9]: 2090 ± 420 nM
EC50 (PKC-ζ; [18]): 4110 ± 159 nM
EC50 (PKC-ε; [11]): 994 ± 63 nM
EC50 (PKC-βI; [13]): 423 ± 67 nM
IC50 [4, 16]: 1020 ± 280 nM
IC50 ([3]; 48 h treatment): 300 ± 160 nM
IC50 [3, 10]: 350 nM
EC50 (PKC-α; [14]): 350 ± 42 nM

EC50 (PKC-ζ; [18]): 205 ± 32.6 nM
SMILES: CCCCC/C=C\C/C=C\C/C=C\C/C=C\CCCC(=O)O [ARA, arachidonic acid, reference compound]

SMILES: CC(C)C1=C(O)C(=O)C2=C(C=C[C@H]3C(C)(C)CCC[C@]23C)C1=O [DeRoy, 6,7-dehydroroyleanone]
IC50 [5]: 60400 ± 3690 nM
EC50 (PKC-ζ): 43.8 ± 2.32 nM
EC50 (PKC-ε; [11]): 5.8 ± 0.7 nM
EC50 (PKC-δ [6]; [12]): 3.1 ± 0.6 nM
EC50 (PKC-α; [14]): 15 ± 1.9 nM

Reference: PMC11266714, “Extraction optimization and reactivity of 7α-acetoxy-6β-hydroxyroyleanone and ability of its derivatives to modulate PKC isoforms” (Scientific Reports, 2024)
